EC50 data for 25 molecules are collected here from patent publication US20220396569A1 (Carmot Therapeutics, Inc., priority 2021, published 2022).

The term EC50 denotes the concentration needed to bring the measured effect to its halfway point.

For the assay, the target named is T1, human GLP-1 receptor (Homo sapiens, UniProt P43220).
T1 construct: expressed in transfected cells
T1 sequence (P43220 24-463): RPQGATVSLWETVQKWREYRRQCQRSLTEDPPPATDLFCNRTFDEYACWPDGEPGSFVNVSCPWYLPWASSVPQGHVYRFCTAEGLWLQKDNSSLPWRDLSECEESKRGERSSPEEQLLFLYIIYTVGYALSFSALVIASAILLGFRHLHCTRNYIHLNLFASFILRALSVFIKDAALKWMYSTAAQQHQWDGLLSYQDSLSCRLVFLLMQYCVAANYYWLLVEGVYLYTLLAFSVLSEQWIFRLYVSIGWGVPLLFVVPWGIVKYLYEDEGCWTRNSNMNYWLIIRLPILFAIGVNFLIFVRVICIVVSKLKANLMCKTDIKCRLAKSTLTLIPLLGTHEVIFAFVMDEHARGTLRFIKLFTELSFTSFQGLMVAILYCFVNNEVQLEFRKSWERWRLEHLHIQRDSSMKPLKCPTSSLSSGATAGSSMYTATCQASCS
Kind of assay: GLP-1R cAMP Assay (HitHunter cAMP accumulation). The format is cell-based. The following applies: cAMP accumulation, CHO cells stably overexpressing human GLP-1 receptor, 30 min treatment; read-out: EC50. Summed up: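 CHO cells stably expressing human GLP-1R, 10,000 cells/well in HBSS with 10 mM HEPES and 625 μM IBMX, were mixed with anti-cAMP antibody reagent. Compound was applied as a 20-point dose response in triplicate for 30 min. After lysis and overnight detection, luminescence was read and dose-response curves analysed.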
On the technique in general: cAMP levels reflect the balance of adenylyl cyclase and phosphodiesterase activity.
On to `CCn1cncc1Cn1c(CN2CCC(Cc3cccc4c3O[C@](C)(c3ccc(Cl)cc3F)O4)CC2)nc2ccc(C(=O)O)cc21` (single isomer, unassigned) [Compound 222], for which the EC50 was < 50 nM. As to `O=C(O)c1ccc2nc(CN3CC(Oc4ccnc(COc5ccc(Cl)cc5Cl)c4)C3)n(Cc3ccno3)c2c1` [Compound 236, 2-{[3-({2-[(2,4-dichlorophenoxy)methyl]pyridin-4-yl}oxy)azetidin-1-yl]methyl}-1-[(1,2-oxazol-5-yl)methyl]-1H-1,3-benzodiazole-6-carboxylic acid], the EC50 was < 50 nM. With `N#Cc1ccc(OCc2cc([C@H]3CCN(Cc4nc5ccc(C(=O)O)cc5n4C[C@@H]4CCO4)C3)ccc2F)c(F)c1` [Compound 439, 2-{[(3R)-3-{3-[(4-cyano-2-fluorophenoxy)methyl]-4-fluorophenyl}pyrrolidin-1-yl]methyl}-1-{[(2S)-oxetan-2-yl]methyl}-1H-1,3-benzodiazole-6-carboxylic acid], the EC50 is 50 to 500 nM.

Consider `CCn1cncc1Cn1c(CN2CCC(Cc3cccc4c3OC(C)(c3ccc(Cl)cn3)O4)CC2)nc2ccc(C(=O)O)cc21` (stereo not shown) [Compound 184, 2-[(4-{[2-(5-chloropyridin-2-yl)-2-methyl-2H-1,3-benzodioxol-4-yl]methyl}piperidin-1-yl)methyl]-1-[(1-ethyl-1H-imidazol-5-yl)methyl]-1H-1,3-benzodiazole-6-carboxylic acid], for which the EC50 was < 50 nM. As to `N#Cc1ccc(OCc2cccc([C@@H]3CCN(Cc4nc5c(F)cc(C(=O)O)cc5n4C[C@@H]4CCO4)C3)c2)c(F)c1` [Compound 445, 2-{[(3S)-3-{3-[(4-cyano-2-fluorophenoxy)methyl]phenyl}pyrrolidin-1-yl]methyl}-4-fluoro-1-{[(2S)-oxetan-2-yl]methyl}-1H-1,3-benzodiazole-6-carboxylic acid], the concentration giving a half-maximal response (EC50) is < 50 nM. With `N#Cc1ccc(OCc2cccc(C3=CCN(Cc4nc5ccc(C(=O)O)cc5n4C[C@@H]4CCO4)C3)c2)c(F)c1` [Compound 400, 2-[(3-{3-[(4-cyano-2-fluorophenoxy)methyl]phenyl}-2,5-dihydro-1H-pyrrol-1-yl)methyl]-1-{[(2S)-oxetan-2-yl]methyl}-1H-1,3-benzodiazole-6-carboxylic acid], the 50% effective concentration (EC50) was < 50 nM.

On to `N#Cc1ccc(OCc2nc(C3=CCN(Cc4nc5c(F)cc(C(=O)O)cc5n4CC4(CC(N)=O)CC4)C3)ccc2F)c(F)c1` [Compound 425, 1-{[1-(carbamoylmethyl)cyclopropyl]methyl}-2-[(3-{6-[(4-cyano-2-fluorophenoxy)methyl]-5-fluoropyridin-2-yl}-2,5-dihydro-1H-pyrrol-1-yl)methyl]-4-fluoro-1H-1,3-benzodiazole-6-carboxylic acid], for which the EC50 is 50 to 500 nM. Next, `N#Cc1cc(Cl)ccc1OCc1cc(OC2CN(Cc3nc4ccc(C(=O)O)cc4n3C[C@@H]3CCO3)C2)ccn1` [Example 193, (S)-2-((3-((2-((4-Chloro-2-cyanophenoxy)methyl)pyridin-4-yl)oxy)azetidin-1-yl)methyl)-1-(oxetan-2-ylmethyl)-1H-benzo[d]imidazole-6-carboxylic acid]: < 50 nM; `O=C(O)c1ccc2nc(CN3CC(Oc4ccnc(COc5ccc(Cl)cc5Cl)c4)C3)n(Cc3cnco3)c2c1` [Example 219, 2-((3-((2-((2,4-Dichlorophenoxy)methyl)pyridin-4-yl)oxy)azetidin-1-yl)methyl)-1-(oxazol-5-ylmethyl)-1H-benzo[d]imidazole-6-carboxylic acid]: < 50 nM; `N#CCC1(Cn2c(CN3CC=C(c4ccc(F)c(COc5ccc(C#N)cc5F)n4)C3)nc3c(F)cc(C(=O)O)cc32)CC1` [Compound 424, 2-[(3-{6-[(4-cyano-2-fluorophenoxy)methyl]-5-fluoropyridin-2-yl}-2,5-dihydro-1H-pyrrol-1-yl)methyl]-1-{[1-(cyanomethyl)cyclopropyl]methyl}-4-fluoro-1H-1,3-benzodiazole-6-carboxylic acid]: < 50 nM.

As to `CCn1cncc1Cn1c(CN2CC(Cc3ccnc(COc4ccc(Cl)cc4Cl)c3)C2)nc2ccc(C(=O)O)cc21` [Compound 176, 2-{[3-({2-[(2,4-dichlorophenoxy)methyl]pyridin-4-yl}methyl)azetidin-1-yl]methyl}-1-[(1-ethyl-1H-imidazol-5-yl)methyl]-1H-1,3-benzodiazole-6-carboxylic acid], the EC50 is < 50 nM. Turning to `N#Cc1ccc(OCc2nc(N3CC[C@@H](Cc4nc5c(F)cc(C(=O)O)cc5n4C[C@@H]4CCO4)C3)ccc2F)c(F)c1` [Compound 534], the EC50 was < 50 nM. `N#CCC1(Cn2c(CN3CC[C@@H](c4ccnc(COc5ccc(Cl)cc5F)c4)C3)nc3c(F)cc(C(=O)O)cc32)CC1` [Compound 432, 2-{[(3S)-3-{2-[(4-chloro-2-fluorophenoxy)methyl]pyridin-4-yl}pyrrolidin-1-yl]methyl}-1-{[1-(cyanomethyl)cyclopropyl]methyl}-4-fluoro-1H-1,3-benzodiazole-6-carboxylic acid]: the 50% effective concentration (EC50) is < 50 nM. Turning to `CCn1cncc1Cn1c(CN2CC(Cc3cccc4c3OC(C)(c3ccc(Cl)cn3)O4)C2)nc2ccc(C(=O)O)cc21` (stereo not shown) [Compound 185, 2-[(3-{[2-(5-chloropyridin-2-yl)-2-methyl-2H-1,3-benzodioxol-4-yl]methyl}azetidin-1-yl)methyl]-1-[(1-ethyl-1H-imidazol-5-yl)methyl]-1H-1,3-benzodiazole-6-carboxylic acid], the EC50 lay in the range of 50 to 500 nM. As for `O=C(O)c1ccc2nc(CN3CC[C@@H](c4cccc(COc5ccc(Cl)cc5F)c4)C3)n(C[C@@H]3CCO3)c2c1` (single isomer, unassigned) [Example 411], the EC50 was < 50 nM. `N#Cc1ccc(OCc2nc([C@H]3CCN(Cc4nc5c(F)cc(C(=O)O)cc5n4C[C@@H]4CCO4)C3)ccc2F)c(F)c1` [Compound 455, 2-{[(3S)-3-{6-[(4-cyano-2-fluorophenoxy)methyl]-5-fluoropyridin-2-yl}pyrrolidin-1-yl]methyl}-4-fluoro-1-{[(2S)-oxetan-2-yl]methyl}-1H-1,3-benzodiazole-6-carboxylic acid]: the EC50 is 50 to 500 nM.

Turning to `N#CCC1(Cn2c(CN3CC=C(c4ccc(F)c(COc5ccc(Cl)cc5F)n4)C3)nc3ccc(C(=O)O)cc32)CC1` [Compound 429, 2-[(3-{6-[(4-chloro-2-fluorophenoxy)methyl]-5-fluoropyridin-2-yl}-2,5-dihydro-1H-pyrrol-1-yl)methyl]-1-{[1-(cyanomethyl)cyclopropyl]methyl}-1H-1,3-benzodiazole-6-carboxylic acid], the concentration for a half-maximal effect (EC50) is < 50 nM.

Take `C[C@H]1[C@@H](Oc2ccnc(COc3ccc(C#N)cc3F)n2)CN1Cc1nc2ccc(C(=O)O)cc2n1C[C@@H]1CCO1` [Compound 545, 2-{[(2S,3S)-3-({2-[(4-cyano-2-fluorophenoxy)methyl]pyrimidin-4-yl}oxy)-2-methylazetidin-1-yl]methyl}-1-{[(2S)-oxetan-2-yl]methyl}-1H-1,3-benzodiazole-6-carboxylic acid]: the concentration for a half-maximal effect (EC50) is < 50 nM.

As for `O=C(O)c1ccc2nc(CN3CC(Oc4cccc(COc5ccc(Cl)cc5Cl)c4)C3)n(Cc3ncco3)c2c1` [Compound 228, 2-[(3-{3-[(2,4-dichlorophenoxy)methyl]phenoxy}azetidin-1-yl)methyl]-1-[(1,3-oxazol-2-yl)methyl]-1H-1,3-benzodiazole-6-carboxylic acid], the EC50 is < 50 nM. The result for `N#Cc1ccc(OCc2nc(C3CCN(Cc4nc5ccc(C(=O)O)cc5n4C[C@@H]4CCO4)C3)ccc2F)c(F)c1` (stereo partly drawn) [Compound 410, 2-[(3-{6-[(4-cyano-2-fluorophenoxy)methyl]-5-fluoropyridin-2-yl}pyrrolidin-1-yl)methyl]-1-{[(2S)-oxetan-2-yl]methyl}-1H-1,3-benzodiazole-6-carboxylic acid] reads < 50 nM; that for `O=C(O)c1ccc2nc(CN3CC[C@H](Oc4ccnc(COc5ccc(C(F)F)cc5F)c4)C3)n(C[C@@H]3CCO3)c2c1` [Compound 298, 2-{[(3S)-3-[(2-{[4-(difluoromethyl)-2-fluorophenoxy]methyl}pyridin-4-yl)oxy]pyrrolidin-1-yl]methyl}-1-{[(2S)-oxetan-2-yl]methyl}-1H-1,3-benzodiazole-6-carboxylic acid], < 50 nM; that for `CCn1cncc1Cn1c(CN2CC3(CC(Oc4cccc(COc5ccc(Cl)cc5Cl)c4)C3)C2)nc2ccc(C(=O)O)cc21` [Compound 235, 2-[(6-{3-[(2,4-dichlorophenoxy)methyl]phenoxy}-2-azaspiro[3.3]heptan-2-yl)methyl]-1-[(1-ethyl-1H-imidazol-5-yl)methyl]-1H-1,3-benzodiazole-6-carboxylic acid], 50 to 500 nM.

As for `N#Cc1ccc(OCc2cccc(O[C@H]3CCN(Cc4nc5ccc(C(=O)O)cc5n4C[C@@H]4CCO4)C3)c2)c(F)c1` [Compound 350, 2-{[(3S)-3-{3-[(4-cyano-2-fluorophenoxy)methyl]phenoxy}pyrrolidin-1-yl]methyl}-1-{[(2S)-oxetan-2-yl]methyl}-1H-1,3-benzodiazole-6-carboxylic acid], the 50% effective concentration (EC50) is < 50 nM. Take `N#Cc1ccc(OCc2nc(C3C[C@H](CF)N(Cc4nc5ccc(C(=O)O)cc5n4C[C@@H]4CCO4)C3)ccc2F)c(F)c1` (mixture of isomers) [Compound 528, 2-(((2R)-4-(6-((4-Cyano-2-fluorophenoxy)methyl)-5-fluoropyridin-2-yl)-2-(fluoromethyl)pyrrolidin-1-yl)methyl)-1-(((S)-oxetan-2-yl)methyl)-1H-benzo[d]imidazole-6-carboxylic acid]: the EC50 was < 50 nM. The result for `N#CCC1(Cn2c(CN3CC=C(c4nc(COc5ccc(Cl)cc5F)ccc4F)C3)nc3ccc(C(=O)O)cc32)CC1` [Compound 438, 2-[(3-{6-[(4-chloro-2-fluorophenoxy)methyl]-3-fluoropyridin-2-yl}-2,5-dihydro-1H-pyrrol-1-yl)methyl]-1-{[1-(cyanomethyl)cyclopropyl]methyl}-1H-1,3-benzodiazole-6-carboxylic acid] reads < 50 nM.
